According to US4515727A, “Allene containing arachidonic acid derivatives” (SYNTEX (U.S.A.) Inc., priority 1982, dated 1985):

How the values were obtained:
Lipoxygenase = molecular target: T1, Lipoxygenase (Homo sapiens, UniProt P09917); assay: Inhibition of lipoxygenase activity by human polymorphonuclear leukocytes (PMNs); format: cell-based; conditions: test compound 1×10^-4 m, 37° C., 5 minutes, arachidonic acid 1-C14 1×10^-4 M; for Percent Inhibition Lipoxygenese Act. 5-HETE: product 5-hydroxy-7,9,11,14-eicosatetraenoic acid; for Percent Inhibition Lipoxygenese Act. LTB4: product Leukotriene B4
T1 construct: The PMNs were prepared from 200-300 ml of heparinized blood of healthy donors; endogenous in cells; host or cells: human polymorphonuclear leukocytes from heparinized blood of healthy donors (intact cells)
T1 sequence (P09917 1-674): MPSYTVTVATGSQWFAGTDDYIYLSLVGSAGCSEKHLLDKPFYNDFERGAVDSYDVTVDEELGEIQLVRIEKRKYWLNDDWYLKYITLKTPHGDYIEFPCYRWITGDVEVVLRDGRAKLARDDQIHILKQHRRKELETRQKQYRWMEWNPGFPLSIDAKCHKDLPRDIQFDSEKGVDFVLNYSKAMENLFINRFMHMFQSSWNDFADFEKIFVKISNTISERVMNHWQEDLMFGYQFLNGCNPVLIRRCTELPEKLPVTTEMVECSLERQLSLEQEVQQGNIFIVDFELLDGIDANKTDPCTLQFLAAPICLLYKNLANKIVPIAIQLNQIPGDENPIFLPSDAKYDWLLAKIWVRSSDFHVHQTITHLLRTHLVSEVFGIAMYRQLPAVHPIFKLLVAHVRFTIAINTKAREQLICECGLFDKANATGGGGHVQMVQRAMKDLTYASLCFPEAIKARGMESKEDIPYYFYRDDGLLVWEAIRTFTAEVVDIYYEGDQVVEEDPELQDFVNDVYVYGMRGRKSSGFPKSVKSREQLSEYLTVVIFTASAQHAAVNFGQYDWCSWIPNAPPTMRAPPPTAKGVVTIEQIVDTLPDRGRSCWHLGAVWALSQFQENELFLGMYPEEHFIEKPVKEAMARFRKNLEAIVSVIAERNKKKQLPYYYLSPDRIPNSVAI
Description: (§1) Assay for Inhibition of Lipoxygenase Activity By Human Polymorphonuclear Leukocytes (PMNs)
(§2) 1. Preparation of the cells:
(§3) The PMNs were prepared from 200-300 ml of heparinized blood of healthy donors not receiving any medication for at least 7 days using Ficoll-Hypaque gradients. In general, PMNs were greater than 98% pure and their viability was assessed by dye-exclusion to be better than 95%. The cells were suspended in phosphate buffered saline containing 1.0 mM CaCl2 (PH 7.4) and 0.1 ovalbumin, and used within 30 minutes.
Incubations were carried out at 37° C. for 5 minutes in a total volume of 0.2 ml. Arachidonic acid 1-C^14 (1×10^-4 M unless otherwise indicated, and approximately 300,000 cpm) was added to a suspension of cells (ca 5×10^6) to initiate the reaction. Prior to the addition of above substrate, the test substances were added to the cells at appropriate concentrations and pre-incubated at 37° C. for 5 minutes. In general, stock solutions of test substances were prepared in ethanol (or other appropriate solvents) and diluted with either incubation buffer or water. […] Boiled enzyme blanks and controls containing no test compound were always included. The incubations were terminated by the addition of 0.6 ml of methanol, vortexed and kept on ice for 30 minutes. An internal standard (5-hydroxy-7,9,11,14-eicosatetraenoic acid methyl ester) and 1.6 ml of deionized water was added, vortexed, centrifuged, supernatants decanted and kept in the freezer overnight. Extraction and purification of the arachidonic acid and lipoxygenase products were carried out using "Baker" disposable C18 extraction columns (1 ml capacity). The columns were prewashed with methanol (2.0 ml) followed by deionized water (2 ml). After most of the solvent was removed, 2.0 ml of the supernatant was applied to the extraction column and the solvent was allowed to flow through. The column was then washed with 5 ml of deionized water and the eludate was discarded. The column was then eluted with 2.0 ml of methanol and the eludate was forced through by N2, collected and the solvent removed in a vacuum oven overnight. The residue was carefully dissolved in […] of the mobile phase (methanol 75:H2 O 25:acetic acid 0.01) and a 10 microliter aliquot counted to estimate the recoveries. An aliquot of an extract from a control tube was injected into a Waters μBondpack C-18 reverse phase column and the retention times of cycloxygenase and lipoxygenase products determined both by OD measurement at 244 nM and by collecting 1 min. fractions and determining radioactivity. Based on this information, programmed collection of fractions (total of 6) using a fraction collector was made with each of the extracts injected into the column by an autoinjector (WISP) and the fractions counted for radioactivity in a Packard Liquid Scintillation Spectrometer.
Using this procedure the following compounds were tested at a concentration of 1×10^-4 m and found to have the denoted lipoxygenase and cycloxygenase activity: […]

Cyclooxygenase = molecular target: T2, Cyclooxygenase (Homo sapiens, UniProt P23219); assay: Inhibition of cyclooxygenase activity in the human PMN arachidonic acid incubation; format: cell-based; conditions: test compound 1×10^-4 m; human PMNs, 37° C., 5 minutes; arachidonic acid 1-C14 1×10^-4 M
T2 construct: The PMNs were prepared from 200-300 ml of heparinized blood of healthy donors; endogenous in cells; host or cells: human polymorphonuclear leukocytes from heparinized blood of healthy donors (intact cells, more than 98% pure)
Description: as §1, §2, §3
Incubations were carried out at 37° C. for 5 minutes in a total volume of 0.2 ml. Arachidonic acid 1-C^14 (1×10^-4 M unless otherwise indicated, and approximately 300,000 cpm) was added to a suspension of cells (ca 5×10^6) to initiate the reaction. Prior to the addition of above substrate, the test substances were added to the cells at appropriate concentrations and pre-incubated at 37° C. for 5 minutes. In general, stock solutions of test substances were prepared in ethanol (or other appropriate solvents) and diluted with either incubation buffer or water. […] Boiled enzyme blanks and controls containing no test compound were always included. The incubations were terminated by the addition of 0.6 ml of methanol, vortexed and kept on ice for 30 minutes. […] The residue was carefully dissolved in […] of the mobile phase (methanol 75:H2 O 25:acetic acid 0.01) and a 10 microliter aliquot counted to estimate the recoveries. An aliquot of an extract from a control tube was injected into a Waters μBondpack C-18 reverse phase column and the retention times of cycloxygenase and lipoxygenase products determined both by OD measurement at 244 nM and by collecting 1 min. fractions and determining radioactivity. Based on this information, programmed collection of fractions (total of 6) using a fraction collector was made with each of the extracts injected into the column by an autoinjector (WISP) and the fractions counted for radioactivity in a Packard Liquid Scintillation Spectrometer. […]

T2 sequence (P23219 24-599): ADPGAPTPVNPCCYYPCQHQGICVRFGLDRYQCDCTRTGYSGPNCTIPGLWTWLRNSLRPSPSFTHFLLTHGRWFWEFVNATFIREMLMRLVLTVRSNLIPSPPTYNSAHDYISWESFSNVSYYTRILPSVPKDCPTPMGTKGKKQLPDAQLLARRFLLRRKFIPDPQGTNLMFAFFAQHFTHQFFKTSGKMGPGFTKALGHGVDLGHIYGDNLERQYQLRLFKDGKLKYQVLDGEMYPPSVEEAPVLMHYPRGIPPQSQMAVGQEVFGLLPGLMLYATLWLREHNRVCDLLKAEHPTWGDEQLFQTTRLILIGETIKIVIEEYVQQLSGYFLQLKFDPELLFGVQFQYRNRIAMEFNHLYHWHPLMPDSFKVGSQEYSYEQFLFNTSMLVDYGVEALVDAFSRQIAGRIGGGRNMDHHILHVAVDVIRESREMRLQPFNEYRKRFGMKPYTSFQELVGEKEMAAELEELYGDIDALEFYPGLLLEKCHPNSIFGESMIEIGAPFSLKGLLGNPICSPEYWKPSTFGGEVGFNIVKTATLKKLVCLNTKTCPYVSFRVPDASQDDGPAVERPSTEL

CCCCCCCCCCC/C=C\CC=C=CCCC(=O)O [4,5,8Z-eicosatrienoic acid]
Percent Inhibition Lipoxygenese Act. 5-HETE (Lipoxygenase): 42%
Percent Inhibition Lipoxygenese Act. LTB4 (Lipoxygenase): 47%
Percent Inhibition Cyclooxygenese Act. Total "PGs" (Cyclooxygenase): 7%

CCCCCCCCCCCSCC=C=CCCC(=O)O [8-thianonadeca-4,5-dienoic acid]
Percent Inhibition Lipoxygenese Act. 5-HETE (Lipoxygenase): 46%
Percent Inhibition Lipoxygenese Act. LTB4 (Lipoxygenase): 37%
Percent Inhibition Cyclooxygenese Act. Total "PGs" (Cyclooxygenase): 22%

CCCCC/C=C\C/C=C\C/C=C\CC=C=CCCC(=O)O [4,5,8Z,11Z,14Z-eicosatetraenoic acid]
Percent Inhibition Lipoxygenese Act. 5-HETE (Lipoxygenase): 9%
Percent Inhibition Lipoxygenese Act. LTB4 (Lipoxygenase): 20%
Percent Inhibition Cyclooxygenese Act. Total "PGs" (Cyclooxygenase): 9%
